Read-outs that look alike come from different tables or passages of the source. Where a SMILES comes first, the peptide text is derived from it. The star is where a group is joined. 3Phenanthroyl(9,10-dioxo) = O=C1C(=O)c2ccc(C(=O)*)cc2-c2ccccc21
What was measured:
in vitro = conditions: human
Protocol: (§1) Calcein-AM (Molecular Probes. Eugene, Oreg.) uptake, as a quantitative measure of cell viability, was used to evaluate the toxic effect of compounds on T cells.
(§2) The T-cell lymphoblasts were purified by separation over Lymphoprep, plated at 2×10^5/well in a round bottom 96-well plate containing RPMI with compound and incubated overnight at 37° C. in an incubator containing 5% CO2. The dilution scheme and culture media were the same as those used in the T-cell proliferation assay. After the incubation period, cells were washed with Dulbecco's phosphate-buffered saline (D-PBS) and incubated with 1 μM Calcein-AM for 30-45 mim in D-PBS as described in the technical sheet provided with The LIVE/DEAD Viability/Cytotoxicity Kit from Molecular Probes.

CD45 [1] = target: T1, CD45 (Homo sapiens, UniProt P08575); assay: Phosphatase assay using pNPP as substrate; assay type: biochemical; conditions: read-out: pNPP IC50
T1 construct: incubating the cytosolic portion of CD45 with the compounds and p-nitrophenyl phosphate (pNPP); purchased BIOMOL (Plymouth Meeting, Pa.)
T1 sequence (P08575 599-1306 limits assumed): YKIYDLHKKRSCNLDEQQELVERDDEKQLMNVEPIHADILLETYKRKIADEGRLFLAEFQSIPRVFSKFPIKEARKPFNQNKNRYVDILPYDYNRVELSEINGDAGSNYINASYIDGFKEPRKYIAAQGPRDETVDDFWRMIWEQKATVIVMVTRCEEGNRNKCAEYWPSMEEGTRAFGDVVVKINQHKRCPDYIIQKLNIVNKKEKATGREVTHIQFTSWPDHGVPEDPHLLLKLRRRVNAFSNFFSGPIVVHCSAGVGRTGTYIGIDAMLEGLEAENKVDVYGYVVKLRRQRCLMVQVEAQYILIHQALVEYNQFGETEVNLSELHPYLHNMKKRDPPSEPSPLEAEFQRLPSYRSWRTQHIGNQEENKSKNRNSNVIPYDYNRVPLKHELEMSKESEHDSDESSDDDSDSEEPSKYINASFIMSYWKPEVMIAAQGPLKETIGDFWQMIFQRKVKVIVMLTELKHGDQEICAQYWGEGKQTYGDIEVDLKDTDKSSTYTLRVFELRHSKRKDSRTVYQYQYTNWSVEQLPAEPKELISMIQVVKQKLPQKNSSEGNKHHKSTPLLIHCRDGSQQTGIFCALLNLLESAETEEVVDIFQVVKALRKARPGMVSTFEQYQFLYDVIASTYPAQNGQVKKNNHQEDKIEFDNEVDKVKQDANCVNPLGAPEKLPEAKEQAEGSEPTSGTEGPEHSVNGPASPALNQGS
Protocol: Phosphatase assay using pNPP as substrate:
CD45 enzyme was obtained from BIOMOL (Plymouth Meeting, Pa.). Phosphatase activity was assayed in a buffer containing final concentrations of 25 mM imidazole at pH 7.0, 50 mM NaCl, 2.5 mM ethylenediaminetetraacetic acid (“EDTA”), 5 mM dithiothreitol (“DTT”) and 10 μg/mL bovine serum albumin (“BSA”) using pNPP as a substrate.

CD45 [2] = target: T1, CD45; assay: Phosphatase assay using lck 10-mer as substrate; assay type: biochemical
Protocol: Phosphatase assay using lck 10-mer as substrate:
Phosphatase activity was assayed in 96 well plates in a buffer containing final concentrations of 25 mM HEPES at pH 7.2, 5 mM DTT and 10 μg/mL BSA using the lck carboxy-terminal peptide TEGQpYQPQP as the substrate (Cho, H., Krishnaraj, R., Itoh, M., Kitas, E., Bannwarth, W., Saito, H., Walsh, C. T. 1993. Substrate specificities of catalytic fragments of protein tyrosine phosphatases (HPTPb, LAR, and CD45) toward the phosphotyrosylpeptide substrates and thiophosphotyrosylated peptides as inhibitors. Protein Science 2:977-984). Compounds were tested in a range from 30 to 0.01 μM in a final concentration of 5% DMSO. Enzyme was incubated with substrate with or without compound, at room temperature for 1.5 h. At the end of the incubation period, BIOMOL “Green Reagent” (BIOMOL, Plymouth Meeting, Pa.) was added to each well, the plates incubated at room temperature for 30 min and absorbance read at 620 nm.

T cells (PBMC) = assay: cells; assay type: cell-based, human; conditions: read-out: T cell prolif. IC50
Protocol: Cell isolation and T cell proliferation assay:
Whole blood was obtained from healthy human blood donors. Peripheral blood mononuclear cells (“PBMC”) were isolated using Lymphoprep density-gradient centrifugation (Nycomed Amersham, Oslo, Norway), washed, counted and resuspended at 2×10^6 cells/mL in RPMI 1640 medium containing glutamine, 0.1 mg/mL gentamycin and 10% heat inactivated human serum. PBMC were transferred to 96-well plates (2×10^5 cells/well) containing compound or vehicle control, with the final concentration of DMSO not to exceed 0.3%, and incubated for 1 hour before addition of the activating anti-CD3 antibody, OKT3 (30ng/mL). After 24 hours in culture, the cells were pulsed with [^3H]thymidine (1 μCi/well) overnight and harvested the next day onto 96-well Packard GF/C filter plates using a Packard Cell Harvester (Packard Instruments, Meriden, Conn.). The filter plate was dried, the bottom of the plate sealed, 25 μL of Microscint 20 scintillation fluid added to each well, the top of the plate sealed with TopSeal-A, and the plate counted on a Packard TopCount. The data from the TopCount is transferred into Excel 5 (Microsoft, Redmond, Wash.) and formatted for EC50 determination using Prism software (GraphPad Software, San Diego, Calif.).

[3] = Cytotoxicity assay (Calcein-AM uptake); conditions: human, PHA-expanded T-cell lymphoblasts from PBMC
Protocol: as §1, §2

[4] = human PBMC, OKT3 30 ng/mL, [3H]thymidine
[5] = CD45 phosphatase, pNPP substrate, pH 7.0
[6] = CD45 phosphatase, lck carboxy-terminal peptide TEGQpYQPQP substrate, pH 7.2, read-out: Ick IC50

Structure (SMILES) | CC50 (in vitro) | IC50 (CD45 [1]; pH 7) | IC50 (CD45 [2]) | IC50 (T cells (PBMC); [4]) | CC50 [3] | IC50 (CD45 [1]; [5]) | IC50 (CD45 [2]; [6]) | IC50 (T cells (PBMC); Homo sapiens)
NC(=O)CC[C@H](NC(=O)[C@@H]1CCCN1C(=O)[C@H](CCC(N)=O)NC(=O)[C@H](CCC(=O)O)NC(=O)c1ccc2c(c1)-c1ccccc1C(=O)C2=O)C(=O)N1CCC[C@H]1C(=O)O [Example 24] ({3Phenanthroyl(9,10-dioxo)}-EQPQP-OH) | > 30000 nM | 600 nM | 2400 nM |  |  |  |  | 
NC(=O)CC[C@H](NC(=O)[C@@H]1CCCN1C(=O)[C@H](CCC(N)=O)NC(=O)CNC(=O)c1ccc2c(c1)-c1ccccc1C(=O)C2=O)C(=O)N1CCC[C@H]1C(=O)O [Example 25] ({3Phenanthroyl(9,10-dioxo)}-GQPQP-OH) | > 30000 nM | 1200 nM | 2500 nM |  |  |  |  | 
NC(=O)CC[C@H](NC(=O)c1ccc2c(c1)-c1ccccc1C(=O)C2=O)C(=O)N[C@@H](CCC(N)=O)C(=O)N1CCC[C@H]1C(=O)N[C@@H](CCC(N)=O)C(=O)N1CCC[C@H]1C(=O)O [Example 26] ({3Phenanthroyl(9,10-dioxo)}-QQPQP-OH) | > 30000 nM | 700 nM | 2300 nM |  |  |  |  | 
NC(=O)CC[C@H](NC(=O)[C@@H]1CCCN1C(=O)[C@H](CCC(=O)O)NC(=O)CNC(=O)c1ccc2c(c1)-c1ccccc1C(=O)C2=O)C(=O)N1CCC[C@H]1C(=O)O [Example 27] ({3Phenanthroyl(9,10-dioxo)}-GEPQP-OH) | > 30000 nM | 700 nM | 3100 nM |  |  |  |  | 
NC(=O)CC[C@H](NC(=O)c1ccc2c(c1)-c1ccccc1C(=O)C2=O)C(=O)N[C@@H](CCC(=O)O)C(=O)N1CCC[C@H]1C(=O)N[C@@H](CCC(N)=O)C(=O)N1CCC[C@H]1C(=O)O [Example 28] ({3Phenanthroyl(9,10-dioxo)}-QEPQP-OH) | > 30000 nM | 1100 nM | 2200 nM |  |  |  |  | 
NC(=O)CC[C@H](NC(=O)CNC(=O)c1ccc2c(c1)-c1ccccc1C(=O)C2=O)C(=O)NCC(=O)N[C@@H](CCC(N)=O)C(=O)N1CCC[C@H]1C(=O)O [Example 29] ({3Phenanthroyl(9,10-dioxo)}-GQGQP-OH) | > 30000 nM | 1100 nM | 2500 nM |  |  |  |  | 
NC(=O)CC[C@H](NC(=O)c1ccc2c(c1)-c1ccccc1C(=O)C2=O)C(=O)N[C@@H](CCC(N)=O)C(=O)NCC(=O)N[C@@H](CCC(N)=O)C(=O)N1CCC[C@H]1C(=O)O [Example 30] ({3Phenanthroyl(9,10-dioxo)}-QQGQP-OH) | > 30000 nM | 900 nM | 1700 nM |  |  |  |  | 
COC(=O)CCCC(=O)Nc1ccc2c(c1)-c1ccccc1C(=O)C2=O [Example 77, 4-(9,10-Dioxo-9,10-dihydro-phenanthren-3-ylcarbamoyl)-butyric Acid Methyl Ester] |  |  |  | 1600 nM | 9000 nM | 800 nM | 2900 nM | 
COC(=O)CCC(=O)Nc1ccc2c(c1)C(=O)C(=O)c1ccccc1-2 [Example 80, N-(9,10-Dioxo-9,10-dihydro-phenanthren-2-yl)-succinamic Acid Methyl Ester] |  |  |  | 700 nM | 6500 nM | 5900 nM | 4900 nM | 
CC(=O)Nc1ccc2c(c1)C(=O)C(=O)c1ccccc1-2 [Example 81, N-(9,10-Dioxo-9,10-dihydro-phenanthren-2-yl)-acetamide] |  |  |  | 200 nM | 900 nM | 1200 nM | 2500 nM | 
Nc1ccc2c(c1)C(=O)C(=O)c1cccc([N+](=O)[O-])c1-2 [Example 84, 2-amino-5-nitro-phenanthrene-9,10-dione] |  |  |  | 700 nM | 4000 nM | 800 nM | 2600 nM | 
Nc1ccc2c(c1)C(=O)C(=O)c1cccc(N)c1-2 [Example 85, 2,5-diamino-phenanthrene-9,10-dione] |  |  |  | 500 nM | 4000 nM | 1400 nM | 2800 nM | 
Nc1cccc2c1-c1ccccc1C(=O)C2=O [Example 89, 4-Amino-phenanthrene-9,10-dione] |  |  |  | 200 nM | 9000 nM | 800 nM | 2900 nM | 
COC(=O)CCC(=O)Nc1cccc2c1C(=O)C(=O)c1ccccc1-2 [Example 91, N-(9,10-Dioxo-9,10-dihydro-phenanthren-1-yl)-succinamic Acid Methyl Ester] |  |  |  | 500 nM | 9000 nM | 400 nM | 4700 nM | 
O=C1C(=O)c2cc([N+](=O)[O-])ccc2-c2ccccc21 [Example 92, 2-Nitro-phenanthrene-9,10-dione] |  |  |  | 1600 nM | 10000 nM | 2400 nM | 5400 nM | 
O=C1C(=O)c2cc([N+](=O)[O-])ccc2-c2ccc([N+](=O)[O-])cc21 [Example 94, 2,7-Dinitro-phenanthrene-9,10-dione] |  |  |  |  | 8000 nM | 4100 nM | 5000 nM | 500 nM
O=C1C(=O)c2cc(Br)ccc2-c2ccccc21 [Example 96, 2-Bromo-phenanthrene-9,10-dione] |  |  |  | 600 nM | 5000 nM | 370 nM | 3100 nM | 
O=C(O)c1ccc2c(c1)C(=O)C(=O)c1ccccc1-2 [Example 97, 9,10-Dioxo-9,10-dihydro-phenanthrene-2-carboxylic Acid] |  |  |  | > 30000 nM | > 30000 nM | 1000 nM | 3300 nM | 
O=C1C(=O)c2ccc([N+](=O)[O-])cc2-c2ccccc21 [Example 99, 3-Nitro-phenanthrene-9,10-dione] |  |  |  | 200 nM | 2800 nM | 500 nM | 4900 nM | 
CC(=O)c1ccc2c(c1)-c1ccccc1C(=O)C2=O [Example 100, 3-Acetyl-phenanthrene-9,10-dione] |  |  |  | 800 nM | 3500 nM | 800 nM | 4200 nM | 
CC(=O)c1ccc2c(c1)C(=O)C(=O)c1ccccc1-2 [Example 101, 2-Acetyl-phenanthrene-9,10-dione] |  |  |  | 1100 nM | 4500 nM | 800 nM | 2900 nM | 
CC(C)(C)OC(=O)CNC(=O)c1ccc2c(c1)C(=O)C(=O)c1ccccc1-2 [Example 103, [(9,10-Dioxo-9,10-dihydro-phenanthrene-2-carbonyl)-amino]-acetic acid tert-butyl ester] |  |  |  | 400 nM | 10000 nM | 600 nM | 4900 nM | 
O=C(O)CNC(=O)c1ccc2c(c1)-c1ccccc1C(=O)C2=O [Example 104, [(9,10-dioxo-9,10-dihydro-phenanthrene-3-carbonyl)-amino]-acetic acid] |  |  |  | 6500 nM | > 30000 nM | 500 nM | 3400 nM | 
O=C(O)CNC(=O)c1ccc2c(c1)C(=O)C(=O)c1ccccc1-2 [Example 105, [(9,10-Dioxo-9,10-dihydro-phenanthrene-2-carbonyl)-amino]-acetic acid] |  |  |  | 4400 nM | > 30000 nM | 800 nM | 2200 nM | 
